Source: US7989466B2, “Methods to inhibit or augment an inflammatory response” (Cambridge Enterprise Limited, priority 1999, dated 2011)

Tests used:
[1] = molecular target: T1, Recombinant human latent TGF-β1 (Homo sapiens, UniProt P01137); test: Latent TGF-β1 activation ELISA (R2X capture); format: biochemical; set-up: key: −: A minus indicates no detectable activity in the assay; +: The number of pluses is a qualitative indicating of the activity of each peptide in each assay; ++: The number of pluses is a qualitative indicating of the activity of each peptide in each assay; +++: The number of pluses is a qualitative indicating of the activity of each peptide in each assay; ++++: The number of pluses is a qualitative indicating of the activity of each peptide in each assay; +++++: The number of pluses is a qualitative indicating of the activity of each peptide in each assay; details: test peptide at 100 nM, 37° C., 90 minutes
T1 construct: purchased R&D Systems; host or cells: CHO cells
Method: To test whether a KXK tripeptide activates TGF-beta, a direct ELISA-type assay can be used. Recombinant human latent TGF-β1 produced in CHO cells (R&D Systems) was incubated with the test activator. For example, 200 ng of latent TGF-β1 (at 20 μg/ml) was incubated with test peptide at 100 nM final concentration at 37° C. for 90 minutes. Following incubation, the TGF-β is incubated with the recombinant extracellular domain of the Type II TGF-β receptor (R2X) which binds only the active and not the latent forms of TGF-β1 (Clin. Chim. Acta, 235, 11 (1995)). For example, 1 μg of purified R2X is coated onto a Maxisorp ELISA plate well in 50 μl of 100 mM sodium carbonate for 2 hours at 4° C., and non-specific protein binding then blocked incubation with 5% sucrose 5% Tween-20 in Tris-buffered saline for 1 hour at room temperature.
The TGF-β sample is then incubated with the coated and blocked wells for 2 hours at room temperature with shaking. Wells are washed 3 times quickly with Tris-buffered saline containing 0.05% Tween-20 between each incubation. If any of the latent TGF-β1 has been activated by the incubation with test peptide, it is captured by the R2X, while remaining latent TGF-β1 is washed away. Captured active TGF-β1 is then detected by incubation with a suitable detection agent, such as a peroxidase conjugated polyclonal anti-TGF-beta antibody. For example, the wells are incubated with 200 μl of BDA19 chicken anti-TGF-β1 antibody coupled to horseradish peroxidase for 90 minutes at room temperature with shaking. Any bound peroxidase is then detected using a suitable chromogenic substrate (e.g., K-BLUE TMB substrate solution). The amount of active TGF-β generated is estimated by interpolation of a standard curve constructed using known amounts of active TGF-β1 (R&D Systems).

[2] = system: chemokine-induced THP-1 migration; test: THP-1 trans-well migration assay, panel of chemokines (MCP-1, MIP1α, IL-8, SDF1α); format: cell-based, human; details: for Chemokine antagonist: active against at least one of IL-8, SDF-1α, MCP-1, MIP1α
[3] = system: SDF-1α induced THP-1 migration; test: THP-1 trans-well migration assay, SDF-1α as chemoattractant; format: cell-based, human; details: tripeptide at 100 μM, mean ± range; dash = no statistically significant reduction in migration
Method: To determine whether an agent inhibits a chemokine-induced activity, such as macrophage recruitment, varying amounts of the agent are mixed with cells in the presence of a known chemoattractant. For example, a range of known concentrations of an agent, e.g., a chemokine peptide, is incubated with a defined number (e.g., 10^4-10^6) of human THP-1 monocyte cells in individual wells of the top compartment of a trans-well plate. Chemokine (such as MCP-1, MIP1α, IL8 or SDF-1α), at a concentration known to cause significant migration of THP-1 cells in the trans-well migration assay, is placed in the lower compartment (FIG. 1). Cells are then incubated at 37° C. for a period sufficient to allow migration, e.g., 4 hours. After incubation, the cells are gently removed from the top of the filter with a pipette, 20 μl of 20 mM EDTA in simple PBS is added into each top well, and incubated for 20 minutes at 4° C. The filter is carefully flushed with media using a gentle flow, and removed. A standard curve consisting of a two-fold dilution series of THP-1 cells (in 29 μl) is prepared to accurately quantify the number of cells that have migrated. Migrated cells are stained with 3 μl of MTT stock dye solution which is added directly into each well (5 mg/ml in RPMI-1640 without phenol red, Sigma Chemical Co.) and incubated at 37° C. for 4 hours. The media is carefully aspirated from each well, and the converted dye is solubilized by 20 μl of DMSO. Absorbance of converted dye is measured at a wavelength of 595 nm using an ELISA plate reader. The number of migrated cells in each well is then determined by interpolation of the standard curve (see also Imai et al., J. Biol. Chem., 272, 15036 (1997)).
For this assay, THP-1 cells were maintained at a density of 4×10^5 cells per ml in RPMI-1640 supplemented with 10% fetal calf serum+20 μM 2-mercaptoethanol. Chemotaxis was induced in a 96-well disposable chemotaxis chamber fitted with a […] polycarbonate filter (PVP free, ChemoTX, Neuroprobe Inc., Cabin John). Twenty-nine μl of chemoattractant (recombinant human chemokine; 50 ng/ml, i.e., 5.9 nM) or control (100 ng/ml TGFβ) was added to the lower compartment of each well. The framed filter was aligned with the holes in the corner of the filter frame and placed over the wells. Five×10^4 THP-1 cells in 25 μl of RPMI-1640 were added to the upper compartment. Peptides were dissolved in Milli Q water and then serially diluted in culture medium. In most cases, the serially diluted peptides were added to the upper compartment of the chemotaxis chamber. The chamber was incubated at 37° C. in a humidified atmosphere of 5% CO2 for 4 hours.
After incubation, the cells were gently removed from the top of the filter with a pipette, 20 μl of 20 mM EDTA in PBS was added into each top well, and the mixture was incubated for 20 minutes at 4° C. The filter was then carefully flushed with media using a gentle flow, and removed. A standard curve was prepared to accurately quantify the number of THP-1 cells that had migrated. The curve was based on a two-fold dilution series of THP-1 cells (top standard 100,000 cells in 29 μl). Cells which had migrated, and in separate wells, the cells in the standards, were stained with 3 μl of MTT stock solution which was added directly into each well (5 mg/ml in RPMI 1640 without phenol red, Sigma Chemical Co.) and incubated at 37° C. for 4 hours. The media was carefully aspirated from each well, and the converted dye was solubilized by 20 μl of DMSO. Absorbance of converted dye was measured at a wavelength of 595 nm using an ELISA plate reader. The number of cells that had migrated in each well was determined by interpolation of the standard curve.

T1 sequence (P01137 30-278 limits assumed): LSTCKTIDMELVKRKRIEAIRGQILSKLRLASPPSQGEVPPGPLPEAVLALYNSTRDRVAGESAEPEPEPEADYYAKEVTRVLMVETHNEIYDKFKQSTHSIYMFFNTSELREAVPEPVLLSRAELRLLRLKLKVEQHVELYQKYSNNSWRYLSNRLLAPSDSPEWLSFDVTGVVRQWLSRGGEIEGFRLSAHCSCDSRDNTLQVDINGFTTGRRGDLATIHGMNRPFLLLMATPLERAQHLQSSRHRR

Substance | TGF-beta Activator [1] | Chemokine antagonist [2] | percentage inhibition of migration induced by SDF1α [3] | CC SPECIFICITY ([2]; average inhibitory ED50 versus SDF1 and IL8 divided by average inhibitory ED50 versus MCP-1 and MIP1α) | EC50 ([2]; footnote f, KQK MCP-1, SEE MIP1α, KLK SDF1, KEN IL8, read-out: ED50 of a tripeptide against the one chemokine it is highly specific for)
KFK | ++++ | − |  |  | 
KLK | +++ | ++++ | 87 ± 6% | <0.1 | 0.1 to 10 µM
KYK | +++++ | − |  |  | 
KGK | − | − |  |  | 
KKK | − | ++++ |  |  | 
KTK | − | − |  |  | 
KDK | − | + |  |  | 
KIK | ++ | ++ |  |  | 
KWK | − | − |  |  | 
KSK | − | − |  |  | 
KEK | − | + |  |  | 
